Reference: patent US8945566B2, “Methods for improving the bioactivity of therapeutic IgE antibodies for the treatment of disease” (Quest PharmaTech, Inc., priority 2008, dated 2015)

Columns and labels:
[1] = tested on: SKBR3 human breast cancer cells; experiment: histamine release and tumor cell killing with effector cells (PBMC or RBL-Sx-38); type: cell-based; details: poly IC 1 to 25 μg/ml added 30 minutes to 4 hours post co-incubation
Experimental: Tumor cells are incubated with increasing concentrations of Her-2 specific IgG or IgE and combined with the effector cells. Evidence of local effector cell activation is measured by assessing histamine and or beta hexosimimidase release into the culture supernatant. Confirmatory experiments showing specificity for the Her-2 Ag can be conducted using anti-NP IgE and NP-HSA or anti-PSA IgE and PSA or conjugated PSA. In addition to immediate hypersensitivity, the target cells can be pre-labeled with Calcein AM and the ability of the anti-Her2 IgE or IgG to induce tumor killing can be monitored via direct effect of the PBMC or the RBL-Sx-38 cells in inducing release of the Calcein AM label.
Having established the baseline activity of a representative Ag specific IgE monoclonal in terms of both histamine release and basic tumor cell killing, the effect of corticosteroid and specific adjuvant on the model can be measured. […] The ability of TLR3 stimulation to augment the ADCC effect is addressed by adding low concentrations (1 to 25 μg/ml) of poly IC (Sigma) to the system at various time points.

[2] = tested on: transgenic mice expressing the human FcεRIα; experiment: passive cutaneous anaphylaxis with tumor microspheroids; type: in vivo; details: agent administered to the mouse
Experimental: Passive cutaneous anaphylaxis is performed in transgenic mice expressing the human FcεRIα. Transgenic mice are shaved and injected intradermally in different regions of the dorsal side with […] of 6 mg/ml histamine base (HollisterStier, Spokane, Wash.), 1 μg anti-PSA IgE, CT26-PSA or CT26-Neo microspheroid alone, 2 μg of crosslinker anti-human kappa antibody alone, 1 μg anti-PSA IgE plus CT26-PSA or CT26-Neo microspheroid, or 1 μg anti-PSA IgE crosslinked with 2 μg of an anti-human kappa antibody. After 15 min, 1% Evans Blue in […] saline is injected i.v. Mice are sacrificed 20 min later, and local cutaneous anaphylaxis is assessed visually by the blue leakage in the area surrounding the injection. […] This effect is not prevented by administration of cortisol to the mouse; however pre-administration of an H1 blocking agent inhibits the size of the response.

Molecule | cell killing (ADCC effect) [1] | effect of co-medication on IgE-induced wheal and flare reaction [2]
poly IC | enhances the amount of killing observed | 
C[C@]12CCC(=O)C=C1CC[C@@H]1[C@@H]2[C@@H](O)C[C@@]2(C)[C@H]1CC[C@]2(O)C(=O)CO [cortisol] |  | not prevented
